Results: US9504252B2, “Microbiocides and uses thereof” (Buckman Laboratories International, Inc., priority 2014, dated 2016)
Entries after “also recorded” stand apart in the source; their conditions may differ.

Legend:
[1] = test system: sulfate reducing bacteria (SRB); experiment: kill study, API broth serial dilution (SRB); assay type: cell-based; conditions: for API SERIES: SRB count, seven days, 30° C.
Procedure: (§1) A one gallon sample of cone water from a contaminated drilling fluid (run through a hydrocyclone) in the DJ (Denver-Julesburg Basin) formation was employed for these studies. The cone water pH was measured at 6.4 and the redox potential was at 34.6. The sample included anaerobic sulfate reducing, aerobic and anaerobic acid producing bacteria and general heterotrophic bacteria. Both organism types were present in this sample with the SRB+H2S at levels in excess of 10^12 bacteria per milliliter in the original sample.
(§2) In order to ensure that the active range was captured, the contaminated water was diluted with Butterfield phosphate buffer solution to a concentration of 0.1% of its original concentration. Serial dilutions were made using 1 cc sterile syringes to inoculate 9.0 mL anaerobic American Petroleum Institute (API) broth with an iron nail designed for sulfate reducing bacteria (SRB). In addition, Acid Producing B acteria (APB) and General Heterotrophic Bacteria (GHB) were tested using serial dilutions in 9 mL phenol red (PR) broth. The media salinity was matched to the substrate salinity of ≈0.5% that was measured by percent Total Dissolved Solids (TDS). Additionally, an untreated control was included. In all cases the concentration was determined on a weight/weight basis of parts per million (milligrams per kilogram). Each aliquot was continuously mixed (in a thermally controlled incubator) well after the addition of the biocide and maintained at 30° C. for the duration of study.
(§3) Untreated and treated aliquots were inspected after seven days checking to see if the bottles the API bottles turned black (indicating positive SRB growth) and to see if the PRD bottles turned yellow (indicating the presence of APB) and/or turbidity (indicating the presence of GHB). A color change at the highest dilution indicated the log quantity of organisms present.

[2] = test system: Acid Producing Bacteria (APB) and General Heterotrophic Bacteria (GHB); experiment: kill study, phenol red broth serial dilution (APB/GHB); assay type: cell-based; conditions: for PRD SERIES: APB and GHB count, seven days, 30° C.
Procedure: as §1, §2, §3

## CNC(=S)[S-].[Na+] [SNMDTC, sodium-N-methyldithiocarbamate]
[1]; 1,000 ppm
  decrease in SRB concentration: did not appear to be any noticeable decrease
[1]; 1,000 ppm total biocide
  API SERIES: >10^4
[1]; 10,000 ppm total biocide
  API SERIES: >10^2
[1]; 10,000 ppm, over a period of eight days
  decrease in bacterial concentration of SRB: two
[2]; 1,000 ppm
  decrease in APB/GHB concentration: did not appear to be any noticeable decrease; also recorded: did not have any noticeable effect
[2]; 1,000 ppm total biocide
  PRD SERIES: ≧10^3
[2]; 10,000 ppm total biocide
  PRD SERIES: >10^2
